Assay results: patent publication US20250179079A1, “HEXAHYDROPYRIDO[4,3-B]INDOLYL KETONE DERIVATIVES USEFUL AS CGAS MODULATORS” (Ventus Therapeutics U.S., Inc., priority 2022, published 2025)
pIC50: −log10 of the molar value. Where two headings read alike, the source gives them in different places.

Target: h-cGAS (Homo sapiens (Human), UniProt Q8N884)
Assay: hcGAS Kinase-Glo assay
Type: biochemical
[1] = Table C, IC50 range designation, read-out: hcGAS IC50
[2] = Table C, raw data in parentheses, read-out: hcGAS IC50

h-cGAS, sequence (Q8N884 whole entry): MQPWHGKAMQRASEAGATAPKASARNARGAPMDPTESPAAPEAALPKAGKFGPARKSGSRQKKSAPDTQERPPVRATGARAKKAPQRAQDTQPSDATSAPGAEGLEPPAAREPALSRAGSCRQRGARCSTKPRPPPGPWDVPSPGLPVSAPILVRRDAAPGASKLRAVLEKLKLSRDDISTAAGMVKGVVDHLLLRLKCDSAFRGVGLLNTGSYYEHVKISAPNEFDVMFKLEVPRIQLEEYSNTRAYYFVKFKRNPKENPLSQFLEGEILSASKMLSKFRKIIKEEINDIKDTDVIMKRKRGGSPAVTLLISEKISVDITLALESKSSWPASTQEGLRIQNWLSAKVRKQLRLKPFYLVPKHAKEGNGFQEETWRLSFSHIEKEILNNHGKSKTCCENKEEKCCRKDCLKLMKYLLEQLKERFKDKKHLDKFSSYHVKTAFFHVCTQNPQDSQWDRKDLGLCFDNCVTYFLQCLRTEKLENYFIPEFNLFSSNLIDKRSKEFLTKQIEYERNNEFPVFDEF

Compound	pIC50 [1]	pIC50 [2]	pIC50 (read-out: hcGAS activity)
COCCNCC(=O)N1CCc2[nH]c3c(Cl)c(Cl)ccc3c2C1 [Compound 69, 1-(6,7-dichloro-1,3,4,5-tetrahydro-2H-pyrido[4,3-b]indol-2-yl)-2-((2-methoxyethyl)amino)ethan-1-one]	6.00 to 6.30	6.17	5.30 to 6.00
CC1c2c([nH]c3c(Cl)c(Cl)ccc23)CCN1C(=O)c1ncc(N(C)CCN(C)C)cn1 (racemic) [Rac-47, (6,7-dichloro-1-methyl-1,3,4,5-tetrahydro-2H-pyrido[4,3-b]indol-2-yl)(5-((2-(dimethylamino)ethyl)(methyl)amino)pyrimidin-2-yl)methanone]		7.30	
COCCOCn1c2c(c3ccc(Cl)c(Cl)c31)CN(C(=O)c1ncc(OC)cn1)CC2 [Compound 23, (6,7-dichloro-5-((2-methoxyethoxy)methyl)-1,3,4,5-tetrahydro-2H-pyrido[4,3-b]indol-2-yl)(5-methoxypyrimidin-2-yl)methanone]	5.30 to 6.00	5.65	5.30 to 6.00
O=C(c1ncc(F)cn1)N1CCc2[nH]c3c(Cl)c(Cl)ccc3c2C1 [Compound 15, (6,7-dichloro-1,3,4,5-tetrahydro-2H-pyrido[4,3-b]indol-2-yl)(5-fluoropyrimidin-2-yl)methanone]	6.00 to 6.30	6.07	6.00 to 6.30
COc1cnc(C(=O)N2CCc3[nH]c4c(Cl)c(Cl)ccc4c3C2C)nc1OC (racemic) [Rac-83, (6,7-dichloro-1-methyl-1,3,4,5-tetrahydro-2H-pyrido[4,3-b]indol-2-yl)(4,5-dimethoxypyrimidin-2-yl)methanone]		6.69	
COCCOc1ccnc(C(=O)N2CCc3[nH]c4c(Cl)c(Cl)ccc4c3C2C)n1 (racemic) [Rac-67, (6,7-dichloro-1-methyl-1,3,4,5-tetrahydro-2H-pyrido[4,3-b]indol-2-yl)(4-(2-methoxyethoxy)pyrimidin-2-yl)methanone]		6.60	> 7.00
NNC(=O)N1CCc2[nH]c3c(Cl)c(Cl)ccc3c2C1 [Compound 59, 6,7-dichloro-1,3,4,5-tetrahydro-2H-pyrido[4,3-b]indole-2-carbohydrazide]	6.30 to 7.00	6.21	6.30 to 7.00
CC1c2c([nH]c3c(Cl)c(Cl)ccc23)CCN1C(=O)c1nccc(OCCO)n1 (racemic) [Rac-70, (6,7-dichloro-1-methyl-1,3,4,5-tetrahydro-2H-pyrido[4,3-b]indol-2-yl)(4-(2-hydroxyethoxy)pyrimidin-2-yl)methanone]		7.10	> 7.00
Nc1ccnc(C(=O)N2CCc3[nH]c4c(Cl)c(Cl)ccc4c3C2)n1 [Compound 14, (4-aminopyrimidin-2-yl)(6,7-dichloro-1,3,4,5-tetrahydro-2H-pyrido[4,3-b]indol-2-yl)methanone]	5.30 to 6.00	5.82	5.30 to 6.00
NCC(=O)N1C2COCC1c1c([nH]c3c(Cl)c(Cl)ccc13)C2 (centres unmarked) [Compound 66, 2-amino-1-(8,9-dichloro-1,2,4,5,6,7-hexahydro-1,5-epiminooxocino[5,4-b]indol-12-yl)ethan-1-one]	6.30 to 7.00	6.50	6.30 to 7.00
O=C(c1nnn[nH]1)N1CCc2[nH]c3c(Cl)c(Cl)ccc3c2C1 [Compound 7, (6,7-dichloro-1,3,4,5-tetrahydro-2H-pyrido[4,3-b]indol-2-yl)(1H-tetrazol-5-yl)methanone]	5.30 to 6.00	5.48	5.30 to 6.00
C[C@H]1c2c([nH]c3c(Cl)c(Cl)ccc23)CCN1C(=O)CN (single isomer, unassigned) [51B*]	> 7.00	7.75	
CC1c2c([nH]c3c(Cl)c(Cl)ccc23)CCN1C(=O)CN (racemic) [Rac-51, 2-amino-1-(6,7-dichloro-1-methyl-1,3,4,5-tetrahydro-2H-pyrido[4,3-b]indol-2-yl)ethan-1-one]		7.42	
COc1cnc(C(=O)N2CCc3[nH]c4c(Cl)c(Cl)cc(SC)c4c3C2C)nc1 (racemic) [Rac-101, (6,7-dichloro-1-methyl-9-(methylthio)-1,3,4,5-tetrahydro-2H-pyrido[4,3-b]indol-2-yl)(5-methoxypyrimidin-2-yl)methanone]		6.39	
C[C@H]1c2c([nH]c3c(Cl)c(Cl)ccc23)CCN1C(=O)c1ncc(C#N)[nH]1 (single isomer, unassigned) [95B*]		6.23	
C[C@@H]1c2c([nH]c3c(Cl)c(Cl)ccc23)CCN1C(=O)CN (single isomer, unassigned) [51A*]	< 5.30	< 5.00	
Cn1cnc(C(=O)N2CCc3[nH]c4c(Cl)c(Cl)ccc4c3C2)n1 [Compound 9, (6,7-dichloro-1,3,4,5-tetrahydro-2H-pyrido[4,3-b]indol-2-yl)(1-methyl-1H-1,2,4-triazol-3-yl)methanone]	5.30 to 6.00	5.97	5.30 to 6.00
CC1c2c([nH]c3c(Cl)c(Cl)ccc23)CCN1C(=O)c1nccc(OCCN(C)C)n1 (racemic) [Rac-88, (6,7-dichloro-1-methyl-1,3,4,5-tetrahydro-2H-pyrido[4,3-b]indol-2-yl)(4-(2-(dimethylamino)ethoxy)pyrimidin-2-yl)methanone]		6.96	

Compound	pIC50 [1]	pIC50 [2]	pIC50 (read-out: hcGAS activity)
CNc1cnc(C(=O)N2CCc3[nH]c4c(Cl)c(Cl)ccc4c3C2C)nc1 (racemic) [Rac-46, (6,7-dichloro-1-methyl-1,3,4,5-tetrahydro-2H-pyrido[4,3-b]indol-2-yl)(5-(methylamino)pyrimidin-2-yl)methanone]		7.29	> 7.00
NC(=O)C(=O)N1CCc2[nH]c3c(Cl)c(Cl)ccc3c2C1 [Compound 57, 2-(6,7-dichloro-1,3,4,5-tetrahydro-2H-pyrido[4,3-b]indol-2-yl)-2-oxoacetamide]	5.30 to 6.00	5.38	5.30 to 6.00
Cc1cnc(C(=O)N2CCc3[nH]c4c(Cl)c(Cl)ccc4c3C2)[nH]1 [Compound 10, (6,7-dichloro-1,3,4,5-tetrahydro-2H-pyrido[4,3-b]indol-2-yl)(5-methyl-1H-imidazol-2-yl)methanone]	5.30 to 6.00	5.49	5.30 to 6.00
COc1cnc(C(=O)N2CCn3nc4c(Cl)c(Cl)ccc4c3[C@@H]2C)nc1 (single isomer, unassigned) [52B*]	> 7.00	7.15	
COc1cnc(C(=O)N2CCc3[nH]c4c(Cl)c(Cl)cc(OC)c4c3C2C)nc1 (racemic) [Rac-132, (6,7-dichloro-9-methoxy-1-methyl-1,3,4,5-tetrahydro-2H-pyrido[4,3-b]indol-2-yl)(5-methoxypyrimidin-2-yl)methanone]		7.34	
CC1c2c([nH]c3c(Cl)c(Cl)ccc23)CCN1C(=O)NO (racemic) [Rac-97, 6,7-dichloro-N-hydroxy-1-methyl-1,3,4,5-tetrahydro-2H-pyrido[4,3-b]indole-2-carboxamide]		6.09	
COc1ccc(C(=O)N2CCc3[nH]c4c(Cl)c(Cl)ccc4c3C2)nn1 [Compound 56, (6,7-dichloro-1,3,4,5-tetrahydro-2H-pyrido[4,3-b]indol-2-yl)(6-methoxypyridazin-3-yl)methanone]	5.30 to 6.00	5.36	
COc1cnc(C(=O)N2CCn3nc4c(Cl)c(Cl)ccc4c3[C@H]2C)nc1 (single isomer, unassigned) [52A*]	< 5.30	< 5.00	
NCC(=O)N1Cc2[nH]c3c(Cl)c(Cl)ccc3c2C1 [Compound 65, 2-amino-1-(5,6-dichloro-3,4-dihydropyrrolo[3,4-b]indol-2(1H)-yl)ethan-1-one]	6.00 to 6.30	6.03	
CC1c2c([nH]c3c(Cl)c(Cl)ccc23)CCN1C(=O)c1ncc(N2CCN(C)CC2)cn1 (racemic) [Rac-48, (6,7-dichloro-1-methyl-1,3,4,5-tetrahydro-2H-pyrido[4,3-b]indol-2-yl)(5-(4-methylpiperazin-1-yl)pyrimidin-2-yl)methanone]		7.28	
C[C@H]1c2c3c(-c4ccn(C)n4)cc(Cl)c(Cl)c3nn2CCN1C(=O)CO (single isomer, unassigned) [61B*]	> 7.00	7.22	
C[C@@H]1c2c3c(-c4ccn(C)n4)cc(Cl)c(Cl)c3nn2CCN1C(=O)CO (single isomer, unassigned) [61A*]	< 5.30	< 5.00	
CNCC(=O)N1CCc2[nH]c3c(Cl)c(Cl)ccc3c2C1 [Compound 64, 1-(6,7-dichloro-1,3,4,5-tetrahydro-2H-pyrido[4,3-b]indol-2-yl)-2-(methylamino)ethan-1-one]		5.83	5.30 to 6.00
CONC(=O)N1CCc2[nH]c3c(Cl)c(Cl)ccc3c2C1C (racemic) [Rac-98, 6,7-dichloro-N-methoxy-1-methyl-1,3,4,5-tetrahydro-2H-pyrido[4,3-b]indole-2-carboxamide]		5.88	
CC1c2c([nH]c3c(Cl)c(Cl)ccc23)CCN1C(=O)c1ncc(N2CCOCC2)cn1 (racemic) [Rac-44, (6,7-dichloro-1-methyl-1,3,4,5-tetrahydro-2H-pyrido[4,3-b]indol-2-yl)(5-morpholinopyrimidin-2-yl)methanone]		7.16	> 7.00
CC1c2c([nH]c3c(Cl)c(Cl)ccc23)CCN1C(=O)c1ncc(N2CCN(C3COC3)CC2)cn1 (racemic) [Rac-49, (6,7-dichloro-1-methyl-1,3,4,5-tetrahydro-2H-pyrido[4,3-b]indol-2-yl)(5-(4-(oxetan-3-yl)piperazin-1-yl)pyrimidin-2-yl)methanone]		6.99	
CC1c2c([nH]c3c(Cl)c(Cl)ccc23)CCN1C(=O)c1ncc(N2CCN3CC(F)(F)C[C@H]3C2)cn1 (mixture of isomers) [Rac-50, (6,7-dichloro-1-methyl-1,3,4,5-tetrahydro-2H-pyrido[4,3-b]indol-2-yl)(5-((S)-7,7-difluorohexahydropyrrolo[1,2-a]pyrazin-2(1H)-yl)pyrimidin-2-yl)methanone]		7.05	
O=C(c1ncc(N2CCOCC2)cn1)N1CCc2[nH]c3c(Cl)c(Cl)ccc3c2C1 [Compound 31, (6,7-dichloro-1,3,4,5-tetrahydro-2H-pyrido[4,3-b]indol-2-yl)(5-morpholinopyrimidin-2-yl)methanone]	6.30 to 7.00	6.65	6.30 to 7.00
